Reference: PMC3176662 (Journal of biomolecular screening, 2011)

What was measured:
[1] = biological target: T1, Francisella tularensis GyrB (ATP binding domain) (Francisella tularensis subsp. tularensis, UniProt Q5NHE7); assay: biochemical
[2] = biological target: E. coli gyrase A2B2 heterotetramer (Escherichia coli, UniProt P0AES6); assay: Gyrase activity; assay type: biochemical; conditions: 50 μM compound, 0.5 μg relaxed pHOT1 DNA, 1 h 37 °C
[3] = biological target: T1, Francisella tularensis GyrB (ATP binding domain); assay: biochemical; conditions: 1 h, read-out: decrease of binding of Novo-TRX to GyrB

T1 sequence (Q5NHE7 1-805): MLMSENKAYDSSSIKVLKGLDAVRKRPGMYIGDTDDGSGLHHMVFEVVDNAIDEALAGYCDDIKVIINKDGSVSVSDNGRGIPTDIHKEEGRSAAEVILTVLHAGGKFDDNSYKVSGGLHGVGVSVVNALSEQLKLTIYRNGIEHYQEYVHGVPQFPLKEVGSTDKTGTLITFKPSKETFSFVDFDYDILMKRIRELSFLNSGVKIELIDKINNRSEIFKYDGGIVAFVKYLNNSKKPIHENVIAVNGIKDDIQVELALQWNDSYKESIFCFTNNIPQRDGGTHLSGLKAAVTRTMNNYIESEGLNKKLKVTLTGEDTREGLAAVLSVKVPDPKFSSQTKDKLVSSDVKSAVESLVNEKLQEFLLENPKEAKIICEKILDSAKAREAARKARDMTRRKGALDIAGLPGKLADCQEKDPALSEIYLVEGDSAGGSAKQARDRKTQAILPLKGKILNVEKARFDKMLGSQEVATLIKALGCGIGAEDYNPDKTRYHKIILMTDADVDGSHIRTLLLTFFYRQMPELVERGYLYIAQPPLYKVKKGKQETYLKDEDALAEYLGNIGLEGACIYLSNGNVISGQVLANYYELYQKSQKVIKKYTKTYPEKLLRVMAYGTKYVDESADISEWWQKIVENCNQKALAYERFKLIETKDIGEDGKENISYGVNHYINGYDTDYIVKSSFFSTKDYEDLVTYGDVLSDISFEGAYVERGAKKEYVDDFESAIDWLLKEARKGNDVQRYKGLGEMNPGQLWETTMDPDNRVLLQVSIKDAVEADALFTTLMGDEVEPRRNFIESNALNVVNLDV

SMILES	IC50 [1]	potency relative to novobiocin in the F. tularensis system (fold less potent) [1]	inhibition of supercoiling of relaxed DNA [2]	inhibition at 10 µM [3]
CCNC(=O)Nc1nc2cc(-c3cccnc3)cc(-c3ccccn3)c2[nH]1 [Vertex-13, N-ethyl-N′-[7-(2-pyridinyl)-5-(3-pyridinyl)-1H-benzimidazol-2-yl]-urea]	0.393 µM	approximately 10 fold	–	–
COc1cccc2c1C(=O)c1c(O)c3c(c(O)c1C2=O)C[C@@](O)(C(C)=O)C[C@@H]3O[C@H]1C[C@H](N)[C@H](O)[C@H](C)O1 [daunorubicin]	1.46 µM	–	less clear	–
COc1cccc2c1C(=O)c1c(O)c3c(c(O)c1C2=O)C[C@@](O)(C(=O)CO)C[C@@H]3O[C@H]1C[C@H](N)[C@H](O)[C@H](C)O1 [doxorubicin]	0.31 µM	–	inhibit supercoiling to the level of the no-gyrase control	–
COc1cccc2c1C(=O)c1c(O)c3c(c(O)c1C2=O)C[C@@](O)(C(=O)CO)C[C@@H]3O[C@H]1C[C@H](N)[C@@H](O)[C@H](C)O1 [epirubicin]	1.27 µM	–	inhibit supercoiling to the level of the no-gyrase control	–
CC(=O)[C@]1(O)Cc2c(O)c3c(c(O)c2[C@@H](O[C@H]2C[C@H](N)[C@H](O)[C@H](C)O2)C1)C(=O)c1ccccc1C3=O [idarubicin]	1.58 µM	–	less clear	–
CO[C@@H]1[C@@H](OC(N)=O)[C@@H](O)[C@H](Oc2ccc3c(O)c(NC(=O)c4ccc(O)c(CC=C(C)C)c4)c(=O)oc3c2C)OC1(C)C [novobiocin]	–	–	–	> 40%
